Where “and” joins values, the source holds several entries; their conditions need not be identical. Equal values may be shown once.
Tests used:
[1] = Plasma exposures following oral administration to beagle dogs
[2] = Plasma stability and conversion to EFdA in human plasma; type: in vitro ADME
Experimental: The pooled frozen plasma was thawed in a water bath at 37° C. prior to experiment. Plasma was centrifuged at 4000 rpm for 5 min and the clots were removed if any. The pH will be adjusted to 7.4±0.1 if required.
Preparation of test compounds and positive control (propantheline bromide): 1 mM intermediate solution was prepared by diluting 10 μL of the stock solution with 90 μL MeOH; 1 mM intermediate of positive control Propantheline was prepared by diluting 10 μL of the stock solution with 90 μL ultrapure water. 100 μM dosing solution was prepared by diluting 20 μL of the intermediate solution (1 mM) with 180 μL MeOH. 98 μL of blank plasma was spiked with 2 μL of dosing solution (100 μM) to achieve 2 μM of the final concentration in duplicate and samples were incubated at 37° C. in a water bath. At each time point (0, 10, 30, 60 and 120 min), 400 μL of stop solution (0.1% FA in MeOH containing 200 ng/mL tolbutamide and 200 ng/mL Labetalol) was added to precipitate protein and mixed thoroughly. Centrifuged sample plates at 4,000 rpm for 10 min. An aliquot of supernatant (100 μL) was transferred from each well to another plates.
Data analysis: The % remaining of test compound after incubation in plasma was calculated using following equation: % Remaining=100×(PAR at appointed incubation time/PAR at T0 time) where PAR is the peak area ratio of analyte versus internal standard (IS) (LC/MS/MS mobile phase condition: 0.1% Formic Acid in Water/0.1% Formic Acid in Acetonitrile. The appointed incubation time points are T0 (0 min), Tn (n=0, 10, 30, 60, 120 min). Liver S9 Stability

[3] = Liver S9 stability and conversion to EFdA in human liver S9; type: in vitro ADME; conditions: for Stability in Human Liver S9 Half-life: human liver S9, 37° C.; for Conversion to the target drug: liver S9 assay
Experimental: Intermediate solution: Dilute 5 μL of compounds or controls (7-ethoxycoumarin) from stock solution (10 mM) with 495 μL MeOH (Conc.: 100 μM, 1% DMSO, 99% MeOH). Stop solution: Cold ACN (including 100 ng/mL Tolbutamide and Labetalol as internal standard). Add 2 μL test compound or control working solution/well to all plates (T0, T5, T10, T20, T30, T60, NCF60) except matrix blank. Add 600 μL/well stop solution (cold in 4° C., including 100 ng/mL Tolbutamide/100 ng/mL Labetalol) to terminate the T0 plate, then put it on ice. Dispense 840 μL/well S9 solution to 96-well plate as reservoir according to plate map. Then add 100 μL/well to every plate by Apricot. Incubate S9 solution and compound at 37° C. for about 10 min except NCF60 and TO. After adding S9 solution and 98 μL PB buffer to NCF60, incubate at 37° C. without pre-warming, start timer 1. After 60 min, add 600 μL/well stop solution to terminate the reaction. After pre-warming, dispense 760 μL/well cofactor solution to 96-well plate as reservoir according to plate map. Then add 98 μL/well to every plate by Apricot to start reaction. Incubate at 37° C., start timer 2, Add 600 μL/well stop solution (cold in 4° C., including 100 ng/mL Tolbutamide and Labetalol) to terminate the reaction. Samples are centrifuged at 4000 rpm for 20 min. While centrifuging, load 8×new 96-well plate with 300 μL HPLC water, then transfer 100 μL supernatant, mix with water for LC/MS/MS, transferred to Bioanalytical Services for LC-MS/MS analysis. Use equation of first order kinetics to calculate t1/2 and CL: Equation of first order kinetics: […]

[4] = Prodrug formula 4-A PO 8.25 mg/kg, 12.0 hrs, individual animals 2001-2003
[5] = Prodrug formula 4-A PO 8.25 mg/kg, 24.0 hrs, individual animals 2001-2003

C#C[C@]1(CO)O[C@@H](n2cnc3c(N)nc(F)nc32)C[C@@H]1O [EFdA, (2R,3S,5R)-5-(6-amino-2-fluoro-9H-purin-9-yl)-2-ethynyl-2-(hydroxymethyl)tetrahydrofuran-3-ol, reference compound]
EFdA Concentrations in Dog Plasma ([1]; EFdA PO 5 mg/kg, 6.00 hrs, individual animals 4001-4003): BQL | EFdA Concentrations in Dog Plasma ([1]; EFdA PO 5 mg/kg, 8.00 hrs, individual animals 4001-4003): BQL | EFdA Concentrations in Dog Plasma ([1]; EFdA PO 5 mg/kg, 12.0 hrs, individual animals 4001-4003): BQL | EFdA Concentrations in Dog Plasma ([1]; EFdA PO 5 mg/kg, 24.0 hrs, individual animals 4001-4003): BQL | EFdA Exposure in Plasma Cmax ([1]; oral EFdA 5 mg/kg, dogs): 392 ng/mL | EFdA Exposure in Plasma AUC ([1]; oral EFdA 5 mg/kg, dogs, AUC0-24 h): 792 ng·h/mL

C#C[C@]1(COC(=O)NC(C)C)O[C@@H](n2cnc3c(N)nc(F)nc32)C[C@@H]1O [Formula 2-A, ((2R,3S,5R)-5-(6-amino-2-fluoro-9H-purin-9-yl)-2-ethynyl-3-hydroxytetrahydrofuran-2-yl)methyl isopropylcarbamate]
Stability in Human Plasma Formation of EFdA [2]: No | Stability in Human Liver S9 Formation of EFdA [3]: No

C#C[C@]1(CO)O[C@@H](n2cnc3c(NC(=O)OC(C)C)nc(F)nc32)C[C@@H]1O [Formula 3-A, isopropyl (9-((2R,4S,5R)-5-ethynyl-4-hydroxy-5-(hydroxymethyl)tetrahydrofuran-2-yl)-2-fluoro-9H-purin-6-yl)carbamate]
Stability in Human Plasma Formation of EFdA [2]: No | Stability in Human Liver S9 Formation of EFdA [3]: No | Stability in Human Liver S9 Half-life [3]: B (B: 50-200 minutes)

C#C[C@]1(COC(=O)OCc2oc(=O)oc2C)O[C@@H](n2cnc3c(N)nc(F)nc32)C[C@@H]1O [Formula 4-A, ((2R,3S,5R)-5-(6-amino-2-fluoro-9H-purin-9-yl)-2-ethynyl-3-hydroxytetrahydrofuran-2-yl)methyl((5-methyl-2-oxo-1,3-dioxol-4-yl)methyl) carbonate]
Stability in Human Plasma Formation of EFdA [2]: Yes | Conversion to the target drug ([2]; human plasma assay): can be converted to the target drug efficiently | Stability in Human Liver S9 Formation of EFdA [3]: Yes | Conversion to the target drug [3]: can be converted to the target drug efficiently | AUC compared with a dose-equivalent EFdA ([1]; EFdA in dog plasma, oral): higher | Cmax compared with a dose-equivalent EFdA ([1]; EFdA in dog plasma, oral): higher | Prodrug formula 4-A Concentrations in Dog Plasma ([1]; Prodrug formula 4-A PO 8.25 mg/kg, 0.250 hrs, individual animals 2001-2003, 8.25 mg/kg): 1.13 ng/mL and 1.63 ng/mL and 1.09 ng/mL | Prodrug formula 4-A Concentrations in Dog Plasma, Mean ([1]; Prodrug formula 4-A PO 8.25 mg/kg, 0.250 hrs, mean of 3 dogs): 1.28 ng/mL | Prodrug formula 4-A Concentrations in Dog Plasma, Mean ([1]; Prodrug formula 4-A PO 8.25 mg/kg, 0.500 hrs, Mean column (one animal above BQL)): 1.68 ng/mL | Prodrug formula 4-A Concentrations in Dog Plasma ([1]; Prodrug formula 4-A PO 8.25 mg/kg, 0.500 hrs, individual animals 2001-2003, 8.25 mg/kg): BQL (2×) and 1.68 ng/mL | Prodrug formula 4-A Concentrations in Dog Plasma, Mean ([1]; Prodrug formula 4-A PO 8.25 mg/kg, 1.00 hrs, Mean column (one animal above BQL)): 1.43 ng/mL | Prodrug formula 4-A Concentrations in Dog Plasma ([1]; Prodrug formula 4-A PO 8.25 mg/kg, 1.00 hrs, individual animals 2001-2003, 8.25 mg/kg): BQL (2×) and 1.43 ng/mL | Prodrug formula 4-A Concentrations in Dog Plasma ([1]; Prodrug formula 4-A PO 8.25 mg/kg, 2.00 hrs, individual animals 2001-2003): BQL | Prodrug formula 4-A Concentrations in Dog Plasma ([1]; Prodrug formula 4-A PO 8.25 mg/kg, 4.00 hrs, individual animals 2001-2003): BQL | Prodrug formula 4-A Concentrations in Dog Plasma ([1]; Prodrug formula 4-A PO 8.25 mg/kg, 6.00 hrs, individual animals 2001-2003): BQL | Prodrug formula 4-A Concentrations in Dog Plasma ([1]; Prodrug formula 4-A PO 8.25 mg/kg, 8.00 hrs, individual animals 2001-2003): BQL | EFdA Concentrations in Dog Plasma [1, 4]: BQL | Prodrug formula 4-A Concentrations in Dog Plasma [1, 4]: BQL | EFdA Concentrations in Dog Plasma [1, 5]: BQL | Prodrug formula 4-A Concentrations in Dog Plasma [1, 5]: BQL | Prodrug detected in the systemic circulation ([1]; dogs, oral): minimal

C#C[C@]1(COC(=O)OCc2oc(=O)oc2C)O[C@@H](n2cnc3c(N)nc(F)nc32)C[C@@H]1OC(=O)OCc1oc(=O)oc1C [Formula 4-C, [(2R,3S,5R)-5-(6-amino-2-fluoro-purin-9-yl)-2-ethynyl-2-[(5-methyl-2-oxo-1,3-dioxol-4-yl)methoxycarbonyloxymethyl]tetrahydrofuran-3-yl] (5-methyl-2-oxo-1,3-dioxol-4-yl)methyl carbonate]
Conversion to the target drug [2]: can be converted to the target drug efficiently | Stability in Human Plasma Formation of EFdA [2]: Yes | Stability in Human Liver S9 Formation of EFdA [3]: Yes | Stability in Human Liver S9 Half-life [3]: C (C: <50 minutes) | Conversion to the target drug [3]: can be converted to the target drug efficiently

C#C[C@]1(COC(=O)NC)O[C@@H](n2cnc3c(N)nc(F)nc32)C[C@@H]1O [Formula 5-A, ((2R,3S,5R)-5-(6-amino-2-fluoro-9H-purin-9-yl)-2-ethynyl-3-hydroxytetrahydrofuran-2-yl)methyl methylcarbamate]
Stability in Human Plasma Formation of EFdA [2]: No | Stability in Human Liver S9 Formation of EFdA [3]: No

C#C[C@]1(CO)O[C@@H](n2cnc3c(NCc4oc(=O)oc4C)nc(F)nc32)C[C@@H]1O [Formula 6-A, 4-(((9-((2R,4S,5R)-5-ethynyl-4-hydroxy-5-(hydroxymethyl)tetrahydrofuran-2-yl)-2-fluoro-9H-purin-6-yl)amino)methyl)-5-methyl-1,3-dioxol-2-one]
Stability in Human Plasma Formation of EFdA [2]: No | Stability in Human Liver S9 Formation of EFdA [3]: Yes | Conversion to the target drug [3]: can be converted to the target drug efficiently

C#C[C@]1(COC(=O)NCCN(C)Cc2oc(=O)oc2C)O[C@@H](n2cnc3c(N)nc(F)nc32)C[C@@H]1O [Formula 7-A, ((2R,3S,5R)-5-(6-amino-2-fluoro-9H-purin-9-yl)-2-ethynyl-3-hydroxytetrahydrofuran-2-yl)methyl (2-(methyl((5-methyl-2-oxo-1,3-dioxol-4-yl)methyl)amino)ethyl)carbamate]
Stability in Human Plasma Formation of EFdA [2]: No | Stability in Human Liver S9 Formation of EFdA [3]: No

From patent US12370208B2, “Adenosine derivative and pharmaceutical composition comprising the same” (Brii Biosciences, Inc., priority 2019, dated 2025)
